Experimental data taken from PubChem BioAssay AID558 (University of Pittsburgh Molecular Library Screening Center, 2006).
Calls of active or inactive are those of the source. The rule behind the calls is not given here.

Molecular target: Dual specificity protein phosphatase 1 (Homo sapiens) (UniProt P28562)
Assay: DTT effect on MKP-1 inhibitor potency – biochemical, DTT added, probe assessment, dose response (AID 558)
Settings: recombinant MKP-1 phosphatase, fluorescence, with DTT

Sequence of Dual specificity protein phosphatase 1 (Homo sapiens) (P28562 whole entry, looked up): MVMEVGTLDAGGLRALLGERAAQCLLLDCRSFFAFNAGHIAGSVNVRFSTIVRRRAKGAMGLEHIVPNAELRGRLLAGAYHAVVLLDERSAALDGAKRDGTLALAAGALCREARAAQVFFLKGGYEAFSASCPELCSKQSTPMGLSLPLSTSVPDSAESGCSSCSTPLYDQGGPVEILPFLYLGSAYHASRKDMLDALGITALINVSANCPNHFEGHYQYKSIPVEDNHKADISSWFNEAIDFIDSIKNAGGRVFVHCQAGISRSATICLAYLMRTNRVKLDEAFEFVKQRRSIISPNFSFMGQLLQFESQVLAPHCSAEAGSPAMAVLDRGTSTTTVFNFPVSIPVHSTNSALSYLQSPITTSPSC

IC50: > 50 µM (inactive)
SMILES: O=C1C(C2=C(O)c3ccccc3C2=O)=Nc2ccccc21
